Data published in patent publication US5091390A, “Treatment of CNS disorders with 4,5,6,7-tetrahydro-1H-imidazo (4,5-)-pyridines and analogs” (E. I. du Pont de Nemours and Company, priority 1990, dated 1992).
Several values for one entry are separate records, joined by “and”; a condition that tells them apart may be missing. Equal values may be shown once. Entries after “also recorded” stand apart in the source; their conditions may differ. Read-outs that look alike come from different tables or passages of the source. Blank lines part the entries; values can stand above or below the molecule they belong to.

What was measured:
AII receptor subtype A = details: cited from earlier work
AII-1 receptor [1] = experiment: DTT inactivation of the AII-1 receptor; format: binding, rat
Source text: (§1) 102: 685-696, except the above binding assay conditions were used.

AII-2 receptor [2] = target: T1, AII-2 receptor (Rattus norvegicus, UniProt P35351); experiment: DTT inactivation of the AII-2 receptor; format: binding; set-up: AII-1 and AII-2 receptor subtypes in rat adrenal cortex microsomes; from tissue; host or cells: rat adrenal cortex (microsomes)
T1 sequence (P35351 1-363): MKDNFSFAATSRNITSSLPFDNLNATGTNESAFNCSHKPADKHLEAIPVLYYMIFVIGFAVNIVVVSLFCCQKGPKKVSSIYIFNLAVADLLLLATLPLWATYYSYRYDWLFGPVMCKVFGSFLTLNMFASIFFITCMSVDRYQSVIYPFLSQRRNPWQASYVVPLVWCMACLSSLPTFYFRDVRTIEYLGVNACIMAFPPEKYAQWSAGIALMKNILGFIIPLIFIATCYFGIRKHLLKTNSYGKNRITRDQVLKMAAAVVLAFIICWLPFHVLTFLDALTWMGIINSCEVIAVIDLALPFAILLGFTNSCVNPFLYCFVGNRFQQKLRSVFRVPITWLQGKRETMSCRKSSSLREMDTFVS
Source text: as §1

AII receptor subtype B = details: cited from earlier work
[3] = system: AII receptors (rat adrenal cortical microsomes); experiment: [125I]AII total specific binding, rat adrenal cortex / cortical microsomes
Method: (§2) The same procedures and conditions were used for adrenal medullary microsomes. […] After 60 min of incubation, the reaction was terminated by addition of cold assay buffer. The bound and free radioactivity were rapidly separated through glass-fiber filters, and the trapped radioactivity was determined by gamma counting.

[4] = system: AII receptors (rat adrenal gland); details: DuP 753 10^-5 M, XB-655 10^-6 M
Method: Fresh tissue was frozen on powdered dry ice and stored at -70° C. until used. Sections were cut at 15 microns and thaw mounted onto gelatin subbed slides. […] Slides were placed under X-ray film (Kodak XAR-5) and exposed for 11/2 days before processing the film to produce the film autoradiograms. The slides were then fixed with paraformaldehyde vapor at 80° C. for two hours, dried under air, delipidated, and dipped in emulsion (Kodak NTB-2). The coated slides were exposed for 4-5 weeks, developed with Kodak D-19 and counter-stained with hemotoxylin-eosin to view the histology.

[5] = system: AII receptors (rat adrenal medullary microsomes); experiment: [125I]AII specific binding, rat adrenal medulla / medullary microsomes; details: below 1×10^-5 M; rat adrenal medullary microsomes
Method: as §2

[6] = target: T2, AII receptors (rat adrenal medullary microsomes) (Rattus norvegicus, UniProt P35351); experiment: as above
T2 construct: from tissue; host or cells: rat adrenal medulla, microsomes
T2 sequence (P35351 1-363): T1 sequence (P35351 1-363)
Method: as §2

[7] = system: AII receptors (rat adrenal cortical membranes); experiment: AII binding to rat adrenal cortical membranes with and without DTT pretreatment; details: for effect of DTT on the inhibition of AII binding: 5 mM DTT, DuP 753 at 3×10^-9 to 3×10^-6 M
Source text: as §1

AII-1 receptor [8] = experiment: [125I]AII radioligand binding, rat adrenal cortical microsomes, AII-1 (DuP 753-sensitive) sites; details: for preference for one AII receptor subtype: AII-1 vs. AII-2
Method: as §2

AII-2 receptor [9] = target: T1, AII-2 receptor; experiment: [125I]AII radioligand binding, rat adrenal cortical microsomes, AII-2 (DuP 753-insensitive) sites; details: for selective binding to AII-2 receptors: AII-2 vs. AII-1
Method: as §2

[10] = system: memory of previously learned tasks; details: in vivo; cited from earlier work
avoidance learning = details: renin IVT, cited from earlier work; for avoidance learning: captopril IVT prior to the renin injection
[11] = system: light/dark habituation performance; details: cited from earlier work
PA task = experiment: renin-induced amnesia in a PA task (applicants); format: in vivo; details: IVT
[12] = system: retention of a passive avoidance (PA) response; details: injected into the dorsal neostriatum, rats; cited from earlier work
[13] = system: potassium stimulated release of [^3 H]ACh; details: entorhinal cortex of rat brain; cited from earlier work
[14] = in the presence of 10^-5 M XB-655, rat adrenal cortex microsomes, read-out: IC50 AII-1

- inactivation of AII-2 receptor by DTT (AII-2 receptor [2]): resistant to DTT inactivation
Molecule: O[C@H](CS)[C@H](O)CS (racemic) [DTT, dithiothreitol]
- effect of DTT on binding to subtype A (AII receptor subtype A): enhance binding to subtype A
- inactivation of AII-1 receptor by DTT (AII-1 receptor [1]): particularly sensitive to inactivation; also recorded: inactivated by DTT
- effect of DTT on binding to subtype B (AII receptor subtype B): inhibit binding to subtype B

Molecule: CCCCc1nc(Cl)c(CO)n1Cc1ccc(-c2ccccc2-c2nn[nH]n2)cc1 [DuP 753]
- inhibition of the total AII binding [3]: 80%
- labeling of adrenal cortex by [125I]AII [4]: significantly reduced
- labeling of adrenal medulla by [125I]AII [4]: not appreciably affected
- inhibition of binding below 1×10^-5 M [5]: 10%
- inhibition of AII binding (in words) ([6]; rat adrenal medulla): essentially inactive
- effect of DTT on the inhibition of AII binding [7]: essentially abolished
- IC50 (AII-1 receptor [8]; [14]): 12 nM

- IC50 (AII-1 receptor [8]; [14]): 12000 nM
- selective binding to AII-2 receptors (AII-2 receptor [9]): bind selectively to AII-2 receptors
Molecule: COC(=O)C1Cc2c(ncn2Cc2ccc(NC(=O)c3ccccc3C(=O)O)c(C)c2)CN1C(=O)C(c1ccccc1)c1ccccc1 (centres unmarked) [Example 2, Methyl-1-[4-amido-(2'-carboxyphenyl)-3-methylphenyl]methyl-5-diphenylacetyl-4,5,6,7-tetrahydro-1H-imidazo (4,5-C)-pyridine-6-carboxylate]

- IC50 (AII-1 receptor [8]; [14]): 300000 nM
- selective binding to AII-2 receptors (AII-2 receptor [9]): bind selectively to AII-2 receptors
Molecule: O=C(O)C1Cc2c(ncn2Cc2ccc(-c3ccccc3-c3nnn[nH]3)cc2)CN1C(=O)C(c1ccccc1)c1ccccc1 (centres unmarked) [Example 27]

Molecule: NCCCC[C@H](OP(=O)(O)CCCCc1ccccc1)C(=O)N1CCC[C@H]1C(=O)O [SQ 29852]
- anticholinergic effect on performance [10]: ameliorate, at least in part
- memory of previously learned tasks [10]: protective effects on memory

- IC50 ([6]; rat adrenal medulla / medullary microsomes): 0.4 nM
- effect of DTT on the inhibition of AII binding [7]: not significantly altered
- preference for one AII receptor subtype (AII-1 receptor [8]): no preference
- IC50 (AII-1 receptor [8]; [14]): 1.7 nM
- IC50 (AII-1 receptor [8]; read-out: IC50, DuP 753-sensitive site, in the presence of 10^-5 M XB-655, unit inferred): ~1.7 nM
- IC50 (AII-2 receptor [9]; IC50 AII-2, in the presence of 10^-5 M DuP 753, rat adrenal cortex microsomes): ~1.3 nM and 1.3 nM
Molecule: CNCC(=O)N[C@@H](CCCN=C(N)N)C(=O)N[C@H](C(=O)N[C@@H](Cc1ccc(O)cc1)C(=O)N[C@H](C(=O)N[C@@H](Cc1cnc[nH]1)C(=O)N1CCC[C@H]1C(=O)N[C@@H](C)C(=O)O)C(C)C)C(C)C [Saralasin]

Molecule: C[C@H](CS)C(=O)N1CCC[C@H]1C(=O)O [captopril]
- avoidance learning (avoidance learning): prevented the renin-induced avoidance disruption
- anticholinergic scopolamine-induced disruption of performance ([11]; daily treatment): prevented
- rate of acquisition of light/dark habituation performance ([11]; subchronic treatment): increased the rate of acquisition
- amnesia in a PA task (PA task): prevented

Molecule: NC(=O)[C@@H]1CCCN1C(=O)[C@H](Cc1cnc[nH]1)NC(=O)[C@@H]1CCC(=O)N1 [thyrotropin releasing hormone]
- retention of a PA response [12]: no effect

Molecule: Angiotensin II (DRVYIHPF; Angiotensin-2; UniProt P01019 25-32, looked up) [AII, octapeptide hormone which is a component of the renin-angiotensin system]
- labeling of adrenal cortex by [125I]AII [4]: potently inhibited the labeling
- labeling of adrenal medulla by [125I]AII [4]: potently inhibited the labeling
- enhancement of inhibitory potency by DTT ([7]; presence vs. absence of DTT): 2.5 fold
- IC50 ([7]; read-out: IC50 in the absence of DTT, absence of DTT): 1 nM
- basal levels of ACh release [13]: without effects on basal levels
- potassium-stimulated release of ACh [13]: reduced potassium-stimulated release of ACh
- preference for one AII receptor subtype (AII-1 receptor [8]): no preference
- retention of a PA response [12]: disruption in retention of a PA response

Molecule: [1-sarcosine, 8-threonine]angiotensin II
- antagonism of the AII effect on ACh release [13]: antagonized

Molecule: lysine-8-vasopressin
- retention of a PA response [12]: no effect

B1: renin: an enzyme involved in endogenous AII biosynthesis (protein, UniProt P00797 67-406, looked up)
Renin: LTLGNTTSSVILTNYMDTQYYGEIGIGTPPQTFKVVFDTGSSNVWVPSSKCSRLYTACVYHKLFDASDSSSYKHNGTELTLRYSTGTVSGFLSQDIITVGGITVTQMFGEVTEMPALPFMLAEFDGVVGMGFIEQAIGRVTPIFDNIISQGVLKEDVFSFYYNRDSENSQSLGGQIVLGGSDPQHYEGNFHYINLIKTGVWQIQMKGVSVGSSTLLCEDGCLALVDTGASYISGSTSSIEKLMEALGAKKRLFDYVVKCNEGPTLPDISFHLGGKEYTLTSADYVFQESYSSKKLCTLAIHAMDIPPPTGPTWALGATFIRKFYTEFDRRNNRIGFALAR
- avoidance learning (avoidance learning): disruption of avoidance learning
- AII level in cerebrospinal fluid (CSF) (avoidance learning; increase from 40): about 5000 fmol per mL
- amnesia in a PA task (PA task): dose-related amnesia
